Reference: PMC10600881 (ACS Omega, 2023)
≈ marks a conversion by molar mass, not a printed value. Like-named read-outs stand apart in the source and are kept apart here.

How the values were obtained:
E. coli (ATCC25922) = assay: Broth microdilution assay, MIC; type: cell-based; conditions: Escherichia coli, ATCC25922, read-out: Minimum Inhibitory Concentration
[1] = test system: P. aeruginosa (ATCC 29853); assay: Broth microdilution assay, MIC/MBC; type: cell-based; conditions: for ratio (MBC/MIC): P. aeruginosa (ATCC 29853); for bactericidal or bacteriostatic effect: MBC/MIC ≤ 4 = bactericidal; for MBC / MIC: Pseudomonas aeruginosa
S. aureus (ATCC 25923) = assay: Broth microdilution assay, MIC; type: cell-based; conditions: Staphylococcus aureus, ATCC25923, read-out: Minimum Inhibitory Concentration
B. subtilis (ATCC 9372) = assay: Broth microdilution assay, MIC; type: cell-based; conditions: Bacillus subtilis, ATCC9372, read-out: Minimum Inhibitory Concentration
C. albicans (ATCC 10231) = assay: Broth microdilution assay, antifungal MIC/MFC; type: cell-based, Candida albicans; conditions: for ratio (MFC/MIC): C. albicans (ATCC 10231); for fungicidal or fungistatic behavior: C. albicans, MFC/MIC > 4 = fungistatic; for MFC / MIC: Candida albicans
[2] = test system: M. tuberculosis (RCMB 010126); assay: Microplate alamar blue assay; type: cell-based, Mycobacterium tuberculosis; conditions: MABA
[3] = biological target: T1, M. tuberculosis DHFR enzyme (Mycobacterium tuberculosis, UniProt P9WNX1); assay: biochemical
T1 sequence (P9WNX1 1-161): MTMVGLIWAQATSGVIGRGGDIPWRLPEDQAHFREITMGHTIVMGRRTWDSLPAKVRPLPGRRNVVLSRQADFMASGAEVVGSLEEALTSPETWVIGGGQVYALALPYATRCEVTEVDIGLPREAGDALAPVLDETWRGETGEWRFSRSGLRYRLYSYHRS

[4] = ATCC29853, read-out: Minimum Inhibitory Concentration
[5] = ATCC10231, read-out: Minimum Inhibitory Concentration
[6] = Mycobacterium tuberculosis, RCMB010126, sensitive Mycobacterium tuberculosis (RCMB 010126)
[7] = sensitive Mycobacterium tuberculosis (RCMB 010126)

| Compound | MIC (E. coli (ATCC25922)) [µg/mL] | ratio (MBC/MIC) [1] | fold more efficient than amoxicillin ([1]; P. aeruginosa, from MICs) [fold] | bactericidal or bacteriostatic effect ([1]; P. aeruginosa) | MBC ([1]; ATCC29853) [µg/mL] | MIC ([1]; ATCC29853) [µg/mL] | MIC [1, 4] [µg/mL] | MIC (S. aureus (ATCC 25923)) [µg/mL] | MIC (B. subtilis (ATCC 9372)) [µg/mL] | ratio (MFC/MIC) (C. albicans (ATCC 10231)) | fungicidal or fungistatic behavior (C. albicans (ATCC 10231)) | MFC (C. albicans (ATCC 10231); ATCC10231) [µg/mL] | MIC (C. albicans (ATCC 10231); ATCC10231) [µg/mL] | MIC (C. albicans (ATCC 10231); [5]) [µg/mL] | MIC [2, 6] [µg/mL] | MIC [2, 7] [µg/mL] | IC50 [3] [µM] |
| --- | --- | --- | --- | --- | --- | --- | --- | --- | --- | --- | --- | --- | --- | --- | --- | --- | --- |
| Brc1ccc(-c2csc(N3N=C(c4cccs4)CC3c3cccs3)n2)cc1 (centres unmarked) [4c, 1-(4-(4-Bromophenyl)thiazol-2-yl)-4,5-dihydro-3,5-di(thiophen-2-yl)-1H-pyrazole] | > 500 | 4 | ~16 | bactericidal | 125 (≈ 265 µM) | 31.2 (≈ 66.1 µM) | 31.2 (≈ 66.1 µM) | 62.5 (≈ 132 µM) | 125 (≈ 265 µM) | 8 | fungistatic | 31.2 (≈ 66.1 µM) | 3.9 (≈ 8.25 µM) | 3.9 (≈ 8.25 µM) | 0.12 to 1.95 (≈ 0.254 to 4.13 µM) | 0.12 (≈ 0.254 µM) | 4.21 ± 0.13 |
| COc1ccc(OC)c(C2CC(c3cccs3)=NN2C2=NC(=O)CS2)c1 (centres unmarked) [6b, 2-(4,5-Dihydro-5-(2,5-dimethoxyphenyl)-3-(thiophen-2-yl)pyrazol-1-yl)thiazol-4(5H)-one] | 125 (≈ 323 µM) | 4 | – | bactericidal | 15.6 (≈ 40.3 µM) | 3.9 (≈ 10.1 µM) | 3.9 (≈ 10.1 µM) | 62.5 (≈ 161 µM) | 125 (≈ 323 µM) | 4 | – | 15.6 (≈ 40.3 µM) | 3.9 (≈ 10.1 µM) | 3.9 (≈ 10.1 µM) | 0.12 to 1.95 (≈ 0.31 to 5.03 µM) | 0.12 (≈ 0.31 µM) | 5.7 ± 0.28 |
| COc1ccc(C=C2SC(N3N=C(c4cccs4)CC3c3cc(OC)ccc3OC)=NC2=O)cc1 (centres unmarked) [8b, 5-(4-Methoxybenzylidene)-2-(4,5-dihydro-5-(2,5-dimethoxyphenyl)-3-(thiophen-2-yl)pyrazol-1-yl)thiazol-4(5H)-one] | > 500 | 8 | – | – | 500 (≈ 989 µM) | 62.2 (≈ 123 µM) | 62.2 (≈ 123 µM) | 62.5 (≈ 124 µM) | 62.5 (≈ 124 µM) | 4 | – | 125 (≈ 247 µM) | 31.2 (≈ 61.8 µM) | 31.2 (≈ 61.8 µM) | – | – | 18.5 ± 0.61 |
| COc1ccc(OC)c(C2CC(c3cccs3)=NN2C2=NC(=O)C(=C3C(=O)Nc4ccccc43)S2)c1 (centres unmarked) [9b, 3-(2-(4,5-Dihydro-5-(2,5-dimethoxyphenyl)-3-(thiophen-2-yl)pyrazol-1-yl)-4-oxothiazol-5(4H)-ylidene)indolin-2-one] | 125 (≈ 242 µM) | 2 | – | bactericidal | 125 (≈ 242 µM) | 62.2 (≈ 120 µM) | 62.2 (≈ 120 µM) | 62.5 (≈ 121 µM) | 125 (≈ 242 µM) | 16 | fungistatic | 500 (≈ 968 µM) | 31.2 (≈ 60.5 µM) | 31.2 (≈ 60.5 µM) | – | – | 22.7 ± 0.55 |
| COc1ccc(OC)c(C2CC(c3cccs3)=NN2C2=NC(=O)CCS2)c1 (centres unmarked) [10b, 5,6-Dihydro-2-(4,5-dihydro-5-(2,5-dimethoxyphenyl)-3-(thiophen-2-yl)pyrazol-1-yl)-1,3-thiazin-4-one] | 125 (≈ 311 µM) | 4 | – | bactericidal | 250 (≈ 623 µM) | 62.2 (≈ 155 µM) | 62.2 (≈ 155 µM) | 250 (≈ 623 µM) | 62.5 (≈ 156 µM) | 2 | – | 31.2 (≈ 77.8 µM) | 15.6 (≈ 38.9 µM) | 15.6 (≈ 38.9 µM) | – | – | 10.6 ± 0.31 |
